Assay results reported in patent publication US9393187B2, “Peptide compounds that inhibit neuronal exocytosis” (LUBRIZOL ADVANCED MATERIALS, INC., priority 2012, dated 2016).

Tested on: human neuroblastoma cell line
Experiment: Release of noradrenaline induced by TPA/Ionomycin in a neuroblastoma cell line, quantified by ELISA
Type: cell-based
Details: TPA/ION control = 100
Protocol: Quantification of the Release of Noradrenaline Induced by TPA/Ionomycin in a Neuroblastoma Cell Line by ELISA
The induction of the release of noradrenaline with TPA (12-O-tetradecanoylphorbol-13-acetate)/lonomycin enables direct measurement of neuronal exocytosis. For the study of the inhibitory effect of the compounds of the invention on the release of noradrenaline, cells of a human neuroblastoma cell line were pre-incubated (1×10^6 cells/well) for 60 minutes with the compound of the invention (1 μM, 10 μM, 100 μM, 500 μM or 1 mM compounds), and afterwards the release of noradrenaline was induced. The release of the noradrenaline neurotransmitter was induced by an 8 minute pre-treatment with a solution of 12-O-tetradecanoylphorbol-13-acetate (TPA) 100 nM, which mobilized the intracellular vesicles which contained the neuro-transmitter; followed by a 5 minute incubation with TPA/Ionomycin (100 nM/10 μM), which induced the release of the neurotransmitter contained in these vesicles. […] For this, absorbance at 405 nm was measured in Thermo Scientific Multiskan Ascent equipment.
The blocking of the SNARE complex by the compounds of the invention lead to an inhibition of neuronal exocytosis and therefore, a decrease in the levels of released noradrenaline (Table 6).

| Substance | % RELEASED NORADRENALINE Average (dose 1 μM) | % RELEASED NORADRENALINE Average (dose 10 μM) | % RELEASED NORADRENALINE Average (dose 100 μM) | % RELEASED NORADRENALINE Average (dose 500 μM) | % RELEASED NORADRENALINE Average (dose 1000 μM) |
| --- | --- | --- | --- | --- | --- |
| Ac-NDIAQM-NH2 [Ac-SEQ ID NO:30-NH2] | 99.59% | 94.48% | 74.79% | 48.07% | 41.05% |
| Ac-RDFDQW-NH2 [Ac-SEQ ID NO:31-NH2] | – | 83.33% | 69.07% | – | 31.72% |
